Results taken from US8563505B2, “Hepatitis C virus inhibitors” (priority 2008, dated 2013).

Legend:
[1] = tested on: HCV replicon in HUH-7 cells; test: HCV replicon assay (FRET, confirmed by luciferase reporter); assay type: cell-based, Hepatitis C virus (strain 1b); settings: Hepatitis C virus, 96 h; class symbols; HUH-7 replicon cells, 4 days
Excerpt: An HCV replicon whole cell system was established as described by Lohmann V, Korner F, Koch J, Herian U, Theilmann L, Bartenschlager R., Science 285(5424):110-3 (1999). This system enabled us to evaluate the effects of our HCV Protease compounds on HCV RNA replication. Briefly, using the HCV strain 1b sequence described in the Lohmann paper (Assession number: AJ238799), an HCV cDNA was synthesized by Operon Technologies, Inc. (Alameda, Calif.), and the full-length replicon was then assembled in plasmid pGem9zf(+) (Promega, Madison, Wis.) using standard molecular biology techniques. The replicon consists of (i) the HCV 5′ UTR fused to the first 12 amino acids of the capsid protein, (ii) the neomycin phosphotransferase gene (neo), (iii) the IRES from encephalomyocarditis virus (EMCV), and (iv) HCV NS3 to NS5B genes and the HCV 3′ UTR. Plasmid DNAs were linearized with Seal and RNA transcripts were synthesized in vitro using the T7 MegaScript transcription kit (Ambion, Austin, Tex.) according to manufacturer's directions. In vitro transcripts of the cDNA were transfected into the human hepatoma cell line, HUH-7. […] Resulting cell lines were characterized for positive and negative strand RNA production and protein production over time.
The HCV replicon FRET assay was developed to monitor the inhibitory effects of compounds described in the disclosure on HCV viral replication. HUH-7 cells, constitutively expressing the HCV replicon, were grown in Dulbecco's Modified Eagle Media (DMEM) (Gibco-BRL) containing 10% Fetal calf serum (FCS) (Sigma) and 1 mg/ml G418 (Gibco-BRL). Cells were seeded the night before (1.5×10^4 cells/well) in 96-well tissue-culture sterile plates. Compound and no compound controls were prepared in DMEM containing 4% FCS, 1:100 Penicillin/Streptomysin (Gibco-BRL), 1:100 L-glutamine and 5% DMSO in the dilution plate (0.5% DMSO final concentration in the assay). Compound/DMSO mixes were added to the cells and incubated for 4 days at 37° C. After 4 days, cells were first assessed for cytotoxicity using alamar Blue (Trek Diagnostic Systems) for a CC50 reading. The toxicity of compound (CC50) was determined by adding 1/10th volume of alamar Blue to the media incubating the cells. After 4 h, the fluorescence signal from each well was read, with an excitation wavelength at 530 nm and an emission wavelength of 580 nm, using the Cytofluor Series 4000 (Perspective Biosystems). Plates were then rinsed thoroughly with Phosphate-Buffered Saline (PBS) (3 times 150 μl).
As a secondary assay, EC50 determinations from the replicon FRET assay were confirmed in a replicon luciferase reporter assay. Utilization of a replicon luciferase reporter assay was first described by Krieger et al (Krieger N, Lohmann V, and Bartenschlager R, J. Viral. 75(10):4614-4624 (2001)). The replicon construct described for our FRET assay was modified by inserting cDNA encoding a humanized form of the Renilla luciferase gene and a linker sequence fused directly to the 3′-end of the luciferase gene. This insert was introduced into the replicon construct using an Asc1 restriction site located in core, directly upstream of the neomycin marker gene. The adaptive mutation at position 1179 (serine to isoleucine) was also introduced (Blight K J, Kolykhalov, A A, Rice, C M, Science 290(5498):1972-1974). A stable cell line constitutively expressing this HCV replicon construct was generated as described above. The luciferase reporter assay was set up as described for the HCV replicon FRET assay with the following modifications. Following 4 days in a 37° C./5% CO2 incubator, cells were analyzed for Renilla Luciferase activity using the Promega Dual-Glo Luciferase Assay System. Media (100 μl) was removed from each well containing cells. To the remaining 50 μl of media, 50 μl of Dual-Glo Luciferase Reagent was added, and plates rocked for 10 min to 2 h at room temperature. […]

[2] = target: T1, HCV NS3/4A protease complex (Hepatitis C virus genotype 1a, UniProt P27958, C1454S/C1711G); test: FRET peptide assay to monitor HCV NS3/4A proteolytic activity; assay type: biochemical; settings: class symbols; NS3/4A strain not stated
T1 construct: DNA encoding the recombinant HCV NS3/4A protease complex (amino acids 1027 to 1711) for these strains; inferred from pET21b vector and Ni-NTA purification) (C); made in house; host or cells: Escherichia coli BL21 (DE3), pET21b
Excerpt: HCV NS3 protease complexes, derived from the BMS strain, H77 strain or J4L6S strain, were generated, as described below. These purified recombinant proteins were generated for use in a homogeneous assay (see below) to provide an indication of how effective compounds of the present disclosure would be in inhibiting HCV NS3 proteolytic activity.
The H77 and J4L6S strains were used for production of recombinant NS3/4A protease complexes. DNA encoding the recombinant HCV NS3/4A protease complex (amino acids 1027 to 1711) for these strains was manipulated as described by P. Gallinari et al. (see Gallinari P, Paolini C, Brennan D, Nardi C, Steinkuhler C, De Francesco R. Biochemistry. 38(17):5620-32, (1999)). Briefly, a three-lysine solubilizing tail was added at the 3′-end of the NS4A coding region. The cysteine in the P1 position of the NS4A-NS4B cleavage site (amino acid 1711) was changed to a glycine to avoid the proteolytic cleavage of the lysine tag. Furthermore, a cysteine to serine mutation was introduced by PCR at amino acid position 1454 to prevent the autolytic cleavage in the NS3 helicase domain. The variant DNA fragment was cloned in the pET21b bacterial expression vector (Novagen) and the NS3/4A complex was expressed in Escherichia coli strain BL21 (DE3) (Invitrogen) following the protocol described by P. Gallinari et al. (see Gallinari P, Brennan D, Nardi C, Brunetti M, Tomei L, Steinkuhler C, De Francesco R., J Virol. 72(8):6758-69 (1998)) with modifications. Briefly, the NS3/4A protease complex expression was induced with 0.5 millimolar (mM) Isopropyl β-D-1-thiogalactopyranoside (IPTG) for 22 hours (h) at 20° C. A typical fermentation (1 Liter (L)) yielded approximately 10 grams (g) of wet cell paste. The cells were resuspended in lysis buffer (10 mL/g) consisting of 25 mM N-(2-Hydroxyethyl)Piperazine-N′-(2-Ethane Sulfonic acid) (HEPES), pH 7.5, 20% glycerol, 500 mM Sodium Chloride (NaCl), 0.5% Triton X-100, 1 microgram/milliliter ([…]) lysozyme, 5 mM Magnesium Chloride (MgCl2), 1 μg/ml DnaseI, 5 mM […] (βME), Protease inhibitor-Ethylenediamine Tetraacetic acid (EDTA) free (Roche), homogenized and incubated for 20 minutes (min) at 4° C. The homogenate was sonicated and clarified by ultra-centrifugation at 235000 g for 1 hour (h) at 4° C. Imidazole was added to the supernatant to a final concentration of 15 mM and the pH adjusted to 8.0. The crude protein extract was loaded on a Nickel-Nitrilotriacetic acid (Ni-NTA) column pre-equilibrated with buffer B (25 mM HEPES, pH 8.0, 20% glycerol, 500 mM NaCl, 0.5% Triton X-100, 15 mM imidazole, 5 mM βME). The sample was loaded at a flow rate of 1 mL/min. The column was washed with 15 column volumes of buffer C (same as buffer B except with 0.2% Triton X-100). The protein was eluted with 5 column volumes of buffer D (same as buffer C except with 200 mM Imidazole).
NS3/4A protease complex-containing fractions were pooled and loaded on a desalting column Superdex-S200 pre-equilibrated with buffer D (25 mM HEPES, pH 7.5, 20% glycerol, 300 mM NaCl, 0.2% Triton X-100, 10 mM (βME). Sample was loaded at a flow rate of 1 mL/min. NS3/4A protease complex-containing fractions were pooled and concentrated to approximately 0.5 mg/ml. The purity of the NS3/4A protease complexes, derived from the BMS, H77 and J4L6S strains, were judged to be greater than 90% by SDS-PAGE and mass spectrometry analyses. The enzyme was stored at −80° C., thawed on ice and diluted prior to use in assay buffer.
The purpose of this in vitro assay was to measure the inhibition of HCV NS3 protease complexes, derived from the BMS strain, H77 strain or J4L6S strain, as described above, by compounds of the present disclosure. This assay provides an indication of how effective compounds of the present disclosure would be in inhibiting HCV NS3 proteolytic activity.
In order to monitor HCV NS3/4A protease activity, an NS3/4A peptide substrate was used. […]

T1 sequence (P27958 1027-1711 C1454S/C1711G, one chain of several): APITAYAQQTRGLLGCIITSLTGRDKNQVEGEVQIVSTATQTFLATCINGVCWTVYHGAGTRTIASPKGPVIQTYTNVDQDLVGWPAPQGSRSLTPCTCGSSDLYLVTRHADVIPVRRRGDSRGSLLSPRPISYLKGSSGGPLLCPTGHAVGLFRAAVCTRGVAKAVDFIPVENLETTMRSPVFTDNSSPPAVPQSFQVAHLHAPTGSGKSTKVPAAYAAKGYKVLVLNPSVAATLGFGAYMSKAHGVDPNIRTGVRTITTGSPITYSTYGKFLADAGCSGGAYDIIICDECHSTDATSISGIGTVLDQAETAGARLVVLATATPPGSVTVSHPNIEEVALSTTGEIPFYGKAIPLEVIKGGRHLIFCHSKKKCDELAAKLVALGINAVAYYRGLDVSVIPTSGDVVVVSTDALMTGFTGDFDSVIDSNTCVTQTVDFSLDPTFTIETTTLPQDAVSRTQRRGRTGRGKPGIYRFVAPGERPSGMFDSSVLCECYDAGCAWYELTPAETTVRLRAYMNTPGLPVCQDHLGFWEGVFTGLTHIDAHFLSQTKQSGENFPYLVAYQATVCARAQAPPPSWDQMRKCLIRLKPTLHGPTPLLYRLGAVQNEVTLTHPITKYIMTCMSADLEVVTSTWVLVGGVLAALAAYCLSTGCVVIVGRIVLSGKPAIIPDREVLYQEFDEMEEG

C=C[C@@H]1C[C@]1(NC(=O)[C@@H]1C[C@]2(OC)CN1C(=O)[C@H](C(C)(C)C)NC(=O)OCCC(C)(C)CCCc1cc(OC)ccc1-c1ccc2cc1)C(=O)NS(=O)(=O)C1CC1 [Example 10]
EC50 [1]: 5.5 to 10 nM
IC50 [2]: 1 to 3 nM

COc1ccc2c(c1)CCCC(C)(C)CCOC(=O)N[C@@H](C(C)(C)C)C(=O)N1C[C@@](OC)(C[C@H]1C(=O)N[C@]1(C(=O)NS(=O)(=O)C3CC3)C[C@H]1C1CC1)c1ccc-2cc1 [Example 11]
EC50 [1]: 5.5 to 10 nM
IC50 [2]: 1 to 3 nM

C=C[C@@H]1C[C@]1(NC(=O)[C@@H]1C[C@]2(OC)CN1C(=O)[C@H](C(C)(C)C)NC(=O)OCC(C)(C)CCCCc1cc(OC)ccc1-c1ccc2cc1)C(=O)NS(=O)(=O)C1CC1 [Example 12]
EC50 [1]: 5.5 to 10 nM
IC50 [2]: 1 to 3 nM
